Article PMC11285368, “Chasing Red Herrings: Palladium Metal Salt Impurities Feigning KRAS Activity in Biochemical Assays” (Journal of Medicinal Chemistry, 2024)
Like-named read-outs stand apart in the source and are kept apart here.

How the values were obtained:
Type in all cases: biochemical
KRAS^G12D(GTP)::CRAF [1] = biological target: T1, KRAS^G12D(GTP)::CRAF (Homo sapiens, UniProt P01116, G12D); assay: KRAS^G12D(GTP)::CRAF AlphaScreen
T1 construct: KRAS^G12D 1–169, N-terminal 6His-tag, C-terminal avi-tag (Xtal BioStructures, Inc.); 6His (N); purchased Xtal BioStructures, Inc. (KRAS); Viva Biotech Ltd. (CRAF)
Protocol: The proteins have been used at these given final assay concentrations:
Test compounds dissolved in DMSO were dispensed onto assay plates (Proxiplate 384 PLUS, white, PerkinElmer; 6008289) using an Access Labcyte Workstation with the Labcyte Echo 555. For the chosen highest assay concentration of 100 μM, 150 nl of compound solution were transferred from a 10 mM DMSO compound stock solution. A series of 11 5-fold dilutions per compound was transferred to the assay plate, and compound dilutions were tested in duplicates. DMSO was added as backfill to a total volume of 150 nl. The assay was run on a fully automated robotic system in a darkened room below 100 Lux. […] After 60 min incubation time 5 μL of AlphaScreen bead mix in assay buffer were added into columns 1–23. Bead mix consisted of AlphaLISA Glutathione Acceptor Beads (PerkinElmer, cat. no. AL109) and Alpha-Screen Streptavidin Donor Beads (perkinElmer cat. no. 6760002) in assay buffer at a final assay concentration of 10 μg/mL each. Plates were kept at room temperature in a darkened incubator. After an additional 60 min incubation time the signal was measured on a PerkinElmer Envision HTS Multilabel Reader using the AlphaScreen specs from PerkinElmer.
(§1) IC50 values were calculated and analyzed with Boehringer Ingelheim’s MEGALAB IC50 application using a 4 parametric logistic model.

biotinylated GST = biotinylated GST (Schistosoma japonicum, UniProt P08515); assay: Control assay (AlphaScreen Shortcut)
Protocol: This assay was developed to identify compounds that interfere with the assay format using AlphaLISA Glutathione Acceptor and AlphaScreen Streptavidin Donor beads. The assay was performed as described above using biotinylated GST as bridging reagent instead of KRAS^G12D and CRAF mix.

KRAS^G12D(GTP)::CRAF [2] = biological target: T1, KRAS^G12D(GTP)::CRAF; assay: KRAS^G12D(GTP)::CRAF TR-FRET; details: Fluorescence; GST-CRAF^(51–131) and KRAS^G12D(1–169)-biotin
Protocol: Plates were kept at room temperature in a darkened incubator.
as §1

T1 sequence (P01116 1-169 isoform P01116-2 G12D): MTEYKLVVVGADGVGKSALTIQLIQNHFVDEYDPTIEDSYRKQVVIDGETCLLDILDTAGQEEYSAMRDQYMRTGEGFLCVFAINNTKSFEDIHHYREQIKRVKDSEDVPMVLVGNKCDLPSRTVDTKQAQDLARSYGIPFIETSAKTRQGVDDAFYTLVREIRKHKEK
Sequence of biotinylated GST (P08515 whole entry): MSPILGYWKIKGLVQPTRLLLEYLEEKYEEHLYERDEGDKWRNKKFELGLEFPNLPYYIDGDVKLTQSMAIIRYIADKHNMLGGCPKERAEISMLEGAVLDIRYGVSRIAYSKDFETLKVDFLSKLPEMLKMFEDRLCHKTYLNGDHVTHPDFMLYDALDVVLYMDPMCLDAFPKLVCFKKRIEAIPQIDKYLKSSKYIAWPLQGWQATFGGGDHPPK

## [Cl][Pd][Cl] [PdCl2, Palladium(II) chloride]
KRAS^G12D(GTP)::CRAF [1]; Batch 1, read-out: KRAS^G12D(GTP)::CRAF AlphaScreen IC50
  IC50: 0.7 ± 0.2 µM
KRAS^G12D(GTP)::CRAF [1]; Luminescence, GST-CRAF^(1–303) and KRAS^G12D(1–169)-biotin, read-out: IC50, KRAS^G12D(GTP)::CRAF AlphaScreen
  IC50: 0.7 ± 0.2 µM
Biotinylated GST; Batch 1, read-out: Control assay IC50
  IC50: 5.8 ± 0.7 µM
Biotinylated GST; Luminescence, biotinylated GST, read-out: IC50, Control assay
  IC50: 5.8 ± 0.7 µM
KRAS^G12D(GTP)::CRAF [2]
  IC50: 40.5 ± 19.2 µM
